# Measurements taken from US9206165B2, “Tetrazolo hydrazine derivatives and pharmaceutical composition comprising same as active ingredient for preventing or treating cancer” (INDUSTRY-ACADEMIC COOPERATION FOUNDATION, YEUNGNAM …, priority 2012, dated 2015).
# Columns and labels:
# [1] = tested on: breast cancer marker genes in MDA-MB-231 cells; assay: Gene expression analysis by real time RT-PCR in MDA-MB-231 cells; type: cell-based, human; conditions: mRNA
# Method: (§1) To investigate the various effects of various cell lines, the expression levels of different breast cancer marker genes were tested after treating the compounds.
# (§2) Total RNA was extracted from the cells using Trizol™ reagent, stored in diethylpyrocarbonate-treated water at −80° C. until use. Total 2 μg of RNA was used for cDNA synthesis. All the primer used in examples of the present invention were designed with Primer 3 software (http://frodo.wi.mit.edu) using sequence information listed at NCBI. Following conditions were applied for the RT-PCR: pre-denaturation of the synthesized cDNA at 95° C. for 10 min followed by 40 cycles of denaturation at 95° C. for 33 s, annealing at each gene-specific primer Tm (° C.), and extension at 72° C. for 33 s. 1.2% of the agarose gel electrophoresis were used to verify the purity of the amplified genes.
# [2] = tested on: breast cancer marker genes in MCF-7 cells; assay: Gene expression analysis by real time RT-PCR in MCF-7 cells; type: cell-based, human; conditions: mRNA
# Method: as §1, §2
# [3] = tested on: MCF-7, MDA-Mb-231 and Zr-75 cell lines; assay: In vitro anti-cancer activity in human breast cancer cell lines, MTT (statements pooled over the three lines); type: cell-based; conditions: 1×10^−5, 1×10^−6 and 1×10^−7 M, 48 h
# Method: (§3) Anti-cancer activities of the compounds f1-f15 on human breast cancer cell line were tested in ER positive (MCF-7) and […] cell lines. The human breast cancer cell lines MCF-7 and MDA-MB-231 were cultured in Dulbecco's Modified Eagle's Medium (DMEM) supplemented with 10% fetal bovine serum (FBS) (HyClone Laboratories, Logan, Utah, USA) and 1% penicillin: streptomycin (Invitrogen, Carlsbad, Calif., USA) in 12 well plates. The test compounds f1-f15 were dissolved in DMSO and one microliter of the stock solution was used per milliliter of the culture to make a working concentration1 1×10^−5, 1×10^−6 and 1×10^−7 M. Each test includes control wells. The cell suspension was diluted to 1×10^4 cells/mL by adding fresh medium, and 1 mL of this suspension was added to the test and control wells. The plates were incubated at 37° C. under CO2 for 24 h. After incubation, the culture media was changed and cells were treated with […] of stock solution. Cells were incubated at 37° C. under CO2 for 48 h. The growth of the cells was checked with a low power microscope and MTT assay was used to confirm the viability. In the similar experiments, the ZR-75 cells were grown in RPMI 1640 (HyClone Laboratories, Logan, Utah, USA) supplemented with 10% fetal bovine serum (FBS) (HyClone Laboratories, Logan, Utah, USA) and 1% penicillin: streptomycin (Invitrogen, Carlsbad, Calif., USA).
# (§4) The results for each compound are reported as percent growth (GP %) of treated cells compared to untreated controls. The inhibitory effects were detectable in compounds 2, 8, 10, 12 and 14 among the compounds f1-f15. […] The percent growth inhibition of compounds varied not only with the substituent groups but also with the nature of the cell line.
# MCF-7 cells = assay: In vitro anti-cancer activity, MTT, MCF-7; type: cell-based, human; conditions: ER positive MCF-7; FIG. 2
# Method: as §3, §4
# ZR-75 cell line = assay: In vitro anti-cancer activity, MTT, ZR-75; type: cell-based, human; conditions: ER negative ZR-75; FIG. 2
# Method: as §3, with “In the similar experiments, the ZR-75 cells were grown in RPMI 1640 (HyClone Laboratories, Logan, Utah, USA) supplemented with 10% fetal bovine serum (FBS) (HyClone Laboratories, Logan, Utah, USA) and 1% penicillin: streptomycin (Invitrogen, Carlsbad, Calif., USA).” left out
# MDA-MB-231 cell line = assay: In vitro anti-cancer activity, MTT, MDA-MB-231; type: cell-based, human; conditions: ER negative MDA-MB-231; FIG. 2
# Method: as §3, with “In the similar experiments, the ZR-75 cells were grown in RPMI 1640 (HyClone Laboratories, Logan, Utah, USA) supplemented with 10% fetal bovine serum (FBS) (HyClone Laboratories, Logan, Utah, USA) and 1% penicillin: streptomycin (Invitrogen, Carlsbad, Calif., USA).” left out
structure (smiles),measurement,setting,value
"CCOc1ccc(C=NNC(=O)Cn2nnnc2-c2ccc3c(c2)OCO3)cc1 [f3, 2-[5-(1,3-benzodioxol-5-yl)-1H-tetrazol-1-yl]-N′-[(4-ethoxyphenyl)methylidene]acetohydrazide]",melting point,,208 to 210 °C
"O=C(Cn1nnnc1-c1ccc2c(c1)OCO2)NN=Cc1ccccc1 [f5, 2-[5-(1,3-benzodioxol-5-yl)-1H-tetrazol-1yl]-N′-[phenylmethylidene]acetohydrazide]",melting point,,204 to 206 °C
"O=C(Cn1nnnc1-c1ccc2c(c1)OCO2)NN=Cc1ccc(Cl)cc1 [f1, 2-[5-(1,3-benzodioxol-5-yl)-1H-tetrazol-1-yl]-N′-[4-chlorophenyl-methylidene]acetohydrazide]",melting point,,206 to 208 °C
"O=C(Cn1nnnc1-c1ccc2c(c1)OCO2)NN=Cc1ccccc1Cl [f2, 2-[5-(1,3-benzodioxol-5-yl)-1H-tetrazol-1-yl]-N′-[(2-chlorophenyl)methylidene]acetohydrazide]",expression of BRAC-1,[1]; FIG. 4,a minimum of two folds decrease
same,melting point,,198 to 200 °C
same,expression of BAX,[2]; FIG. 3,increased more than two fold
same,expression of CD44,[2]; FIG. 3,increased
same,anti-proliferative activity / inhibitory effects,[3]; FIG. 2,excellent anti-proliferative activity
same,anti-proliferative activity / inhibitory effects,"[3]; FIG. 2, listed as 2",detectable
"CCOc1ccccc1C=NNC(=O)Cn1nnnc1-c1ccc2c(c1)OCO2 [f7, 2-[5-(1,3-benzodioxol-5-yl)-1H-tetrazol-1-yl]-N′-[(2-ethoxyphenyl)methylidene]acetohydrazide]",melting point,,196 to 198 °C
"Cc1ccc(C=NNC(=O)Cn2nnnc2-c2ccc3c(c2)OCO3)cc1 [f6, 2-[5-(1,3-benzodioxol-5-yl)-1H-tetrazol-1-yl]-N′-[(4-methylphenyl)methylidene]acetohydrazide]",melting point,,203 to 205 °C
"COc1ccc(C=NNC(=O)Cn2nnnc2-c2ccc3c(c2)OCO3)cc1 [f4, 2-[5-(1,3-benzodioxol-5-yl)-1H-tetrazol-1-yl]-N′-[(4-methoxyphenyl)methylidene]acetohydrazide]",melting point,,198 to 200 °C
"O=C(Cn1nnnc1-c1ccc2c(c1)OCO2)NN=Cc1ccco1 [f13, 2-[5-(1,3-benzodioxol-5-yl)-1H-tetrazol-1-yl]-N′-[furan-2-ylmethylidene]acetohydrazide]",melting point,,212 to 214 °C
"O=C(Cn1nnnc1-c1ccc2c(c1)OCO2)N/N=C/c1ccc([N+](=O)[O-])cc1 [f14, 2-[5-(1,3-benzodioxol-5-yl)-1H-tetrazol-1-yl]-N′-[(E)-(4-nitrophenyl)methylidene]acetohydrazide]",anti-proliferative effects on MCF-7 cells growth,MCF-7 cells,more anti-proliferative effects
same,expression of BRAC-1,[1]; FIG. 4,a minimum of two folds decrease
same,melting point,,204 to 206 °C
same,expression of BAX,[2]; FIG. 3,increased more than two fold
same,expression of CD44,[2]; FIG. 3,increased
same,anti-proliferative activity / inhibitory effects,[3]; FIG. 2,excellent anti-proliferative activity
same,anti-proliferative activity / inhibitory effects,"[3]; FIG. 2, listed as 14",detectable
"O=C(Cn1nnnc1-c1ccc2c(c1)OCO2)NN=Cc1cccc([N+](=O)[O-])c1 [f12, 2-[5-(1,3-benzodioxol-5-yl)-1H-tetrazol-1yl]-N′-[(3-nitrophenyl)methylidene]acetohydrazide]",anti-proliferative effects on MCF-7 cells growth,MCF-7 cells,more anti-proliferative effects
same,expression of BRAC-1,[1]; FIG. 4,a minimum of two folds decrease
same,melting point,,208 to 210 °C
same,expression of BAX,[2]; FIG. 3,increased more than two fold
same,expression of CD44,[2]; FIG. 3,increased
same,anti-proliferative activity / inhibitory effects,[3]; FIG. 2,excellent anti-proliferative activity
same,anti-proliferative activity / inhibitory effects,"[3]; FIG. 2, listed as 12",detectable
"O=C(Cn1nnnc1-c1ccc2c(c1)OCO2)NN=Cc1ccccc1[N+](=O)[O-] [f10, 2-[5-(1,3-benzodioxol-5-yl)-1H-tetrazol-1yl]-N′-[(2-nitrophenyl)methylidene]acetohydrazide]",anti-proliferative effects on MCF-7 cells growth,MCF-7 cells,more anti-proliferative effects
same,expression of BRAC-1,[1]; FIG. 4,a minimum of two folds decrease
same,melting point,,210 to 212 °C
same,expression of BAX,[2]; FIG. 3,increased more than two fold
same,expression of CD44,[2]; FIG. 3,increased
same,expression of CD44,"[2]; FIG. 3, listed as 10",increased about two fold
same,anti-proliferative activity / inhibitory effects,[3]; FIG. 2,excellent anti-proliferative activity
same,anti-proliferative activity / inhibitory effects,"[3]; FIG. 2, listed as 10",detectable
"CCc1ccc(C=NNC(=O)Cn2nnnc2-c2ccc3c(c2)OCO3)cc1 [f11, 2-[5-(1,3-benzodioxol-5-yl)-1H-tetrazol-1-yl]-N′-[(4-ethylphenyl)methylidene]acetohydrazide]",melting point,,200 to 202 °C
"COc1ccc(C=NNC(=O)Cn2nnnc2-c2ccc3c(c2)OCO3)cc1OC [f8, 2-[5-(1,3-benzodioxol-5-yl)-1H-tetrazol-1-yl]-N′-[(3,4-dimethoxyphenyl)methylidene]acetohydrazide]",expression of BRAC-1,[1]; FIG. 4,a minimum of two folds decrease
same,expression of BRAC-1,"[1]; FIG. 4, listed as 8",highly suppressed
same,anti-proliferative effects in ZR-75,ZR-75 cell line,more anti-proliferative effects
same,melting point,,200 to 202 °C
same,anti-proliferative effects in MDA-MB-231,MDA-MB-231 cell line,more anti-proliferative effects
same,expression of BAX,[2]; FIG. 3,increased more than two fold
same,expression of CD44,[2]; FIG. 3,increased
same,expression of CD44,"[2]; FIG. 3, listed as 8",increased about two fold
same,anti-proliferative activity / inhibitory effects,[3]; FIG. 2,excellent anti-proliferative activity
same,anti-proliferative activity / inhibitory effects,"[3]; FIG. 2, listed as 8",detectable
